One assay deals with T1, Matrilysin (Homo sapiens, UniProt P09237).
T1 sequence (P09237 whole entry): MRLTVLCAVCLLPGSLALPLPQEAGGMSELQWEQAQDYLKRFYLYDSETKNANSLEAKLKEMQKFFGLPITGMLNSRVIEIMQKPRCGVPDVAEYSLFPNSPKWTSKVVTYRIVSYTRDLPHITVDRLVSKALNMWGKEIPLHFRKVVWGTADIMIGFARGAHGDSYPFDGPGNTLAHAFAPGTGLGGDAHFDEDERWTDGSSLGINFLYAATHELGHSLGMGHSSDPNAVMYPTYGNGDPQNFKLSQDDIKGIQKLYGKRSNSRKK
The assay can be described thus: Inhibition of recombinant human MMP7 using MOCAc-Pro-Leu-Gly-Leu-A2pr-(Dnp)-Ala-Arg-NH2 as substrate preincubated with compound for 15 mins followed by substrate addition and measured after 2 hrs by fluorescence based analysis.

For assay [1], the target named is Matrix metalloproteinase-14 (Homo sapiens, UniProt P50281). The assay can be described thus: Inhibition of recombinant human MMP14 using MOCAc-Lys-Pro-Leu-Gly-Leu-A2pr(Dnp)-Ala-Arg-NH2 as substrate preincubated with compound for 15 mins followed by substrate addition and measured after 1 hrs by fluorescence based analysis.

Numbered stars: 1 amine (or outer) side, 2 acyl side, 3 side chain; on linkers, the order of the positions; unused ones are H or OH. Square brackets hold non-standard residues; d marks the D form. Peptide text beside a SMILES is read from it. * marks the point of attachment. Benzenesulfonyl(4-Cl,3-CF3) = O=S(=O)(c1ccc(Cl)c(C(F)(F)F)c1)*; Ala(4-thiazolyl) = N[C@@H](Cc1cscn1)C(=O)O; γGlu = O=C(O)[C@H](CCC(=O)[*:2])N[*:1]; 2Pal = N[C@@H](Cc1ccccn1)C(=O)O; 3Pal = N[C@@H](Cc1cccnc1)C(=O)O; Tle = CC(C)(C)[C@H](N)C(=O)O; β3hP = O=C(O)C[C@@H]1CCCN1

As to `CC(C)(C)[C@H](NC(=O)[C@H](Cn1ccnn1)NC(=O)CNC(=O)CC[C@H](NS(=O)(=O)c1ccc(Cl)c(C(F)(F)F)c1)C(=O)O)C(=O)N1CCC[C@H]1CC(N)=O`, the figures for the IC50 (on Matrilysin; in assay [1]) were 32 nM and 8300 nM, respectively.
`CC(C)(C)[C@H](NC(=O)[C@H](Cc1cccnc1)NC(=O)CNC(=O)CC[C@H](NS(=O)(=O)c1ccc(Cl)c(C(F)(F)F)c1)C(=O)O)C(=O)N1CCC[C@H]1CC(N)=O` ({Benzenesulfonyl(4-Cl,3-CF3)-γGlu}-G[3Pal][Tle][β3hP]-NH2): the IC50 at Matrilysin was determined as 1.7 nM; in assay [1] it was 2700 nM.
Taken in the same sequence, the figures for `CC(C)(C)[C@H](NC(=O)[C@H](Cc1ccccn1)NC(=O)CNC(=O)CC[C@H](NS(=O)(=O)c1ccc(Cl)c(C(F)(F)F)c1)C(=O)O)C(=O)N1CCC[C@H]1CC(N)=O` ({Benzenesulfonyl(4-Cl,3-CF3)-γGlu}-G[2Pal][Tle][β3hP]-NH2) were 1.9 nM and 3500 nM.
As to `CC(C)(C)[C@H](NC(=O)[C@H](Cc1cccnn1)NC(=O)CNC(=O)CC[C@H](NS(=O)(=O)c1ccc(Cl)c(C(F)(F)F)c1)C(=O)O)C(=O)N1CCC[C@H]1CC(N)=O`, the IC50 on Matrilysin was found to be 6 nM; in assay [1] it was 8400 nM.
Taken in the same sequence, the figures for `CC(C)(C)[C@H](NC(=O)[C@H](Cc1cscn1)NC(=O)CNC(=O)CC[C@H](NS(=O)(=O)c1ccc(Cl)c(C(F)(F)F)c1)C(=O)O)C(=O)N1CCC[C@H]1CC(N)=O` ({Benzenesulfonyl(4-Cl,3-CF3)-γGlu}-G[Ala(4-thiazolyl)][Tle][β3hP]-NH2) were 3.8 nM and 930 nM.

A word on the IC50: it is the midpoint of a concentration-inhibition curve.

The values above are taken from ChEMBL document CHEMBL5370641, “Structure-Based Optimization and Biological Evaluation of Potent and Selective MMP-7 Inhibitors for Kidney Fibrosis” (J Med Chem, 2023).
